We go through two molecules from ChEMBL document CHEMBL1629699, “Cell wall thickening is not a universal accompaniment of the daptomycin nonsusceptibility phenotype in Staphylococcus aureus: evidence for multiple resistance mechanisms” (Antimicrob Agents Chemother, 2010).

Molecules are shown by their SMILES. Values after ≈ are worked out from the molar mass of the structure shown.

By MIC is commonly meant the lowest concentration that inhibits growth of the organism. Lower therefore signals greater potency.

For data set [1], the system named is Cell membrane. Nature of the data set: Binding affinity to methicillin-susceptible Staphylococcus aureus 11/11 cell membrane assessed as amount of compound bound at 8 ug after 10 mins.
In data set [2] the test system is Staphylococcus aureus. Nature of the data set: AUC in methicillin-resistant sStaphylococcus aureus 11/11. Particulars: in vitro population analysis.
In data set [3] the test system is Cell membrane. The data set can be described thus: Binding affinity to daptomycin-resistant Staphylococcus aureus REF2145 cell membrane assessed as amount of compound bound at 8 ug after 10 mins.
The test system of data set [4] is Staphylococcus aureus. Nature of the data set: Antimicrobial activity against Staphylococcus aureus BMC1001 by Etest.
The subject of data set [5] is Staphylococcus aureus. The data set can be described thus: Antimicrobial activity against Staphylococcus aureus CB184 after 24 hrs by Etest. Particulars: CB184, 24 h.
The test system of data set [6] is Staphylococcus aureus. Nature of the data set: Antimicrobial activity against Staphylococcus aureus BMC1002 by Etest. The format is functional.
The subject of data set [7] is Cell membrane. Nature of the data set: Binding affinity to daptomycin-resistant Staphylococcus aureus REF2145 cell membrane assessed as amount of compound bound at 6 ug after 10 mins.
The test system of data set [8] is Staphylococcus aureus. The data set can be described thus: Antimicrobial activity against Staphylococcus aureus CB5053 by Etest.
Data set [9] concerns Staphylococcus aureus. The data set can be described thus: Antimicrobial activity against Staphylococcus aureus CB1482 after 24 hrs by plate reader analysis. Particulars: CB1482, 24 h.
Data set [10] has as its system Staphylococcus aureus. Nature of the data set: Antimicrobial activity against Staphylococcus aureus CB5035 by Etest. The class given is functional.
The test system of data set [11] is Staphylococcus aureus. Nature of the data set: Antimicrobial activity against Staphylococcus aureus CB5054 by Etest. The class given is functional.
For data set [12], the system named is Cell membrane. The data set can be described thus: Binding affinity to methicillin-susceptible Staphylococcus aureus 11/11 cell membrane assessed as amount of compound bound at 6 ug after 10 mins.
Data set [13] has as its system Staphylococcus aureus. Nature of the data set: Antimicrobial activity against Staphylococcus aureus CB5036 by Etest. The class given is functional.

For the molecule `CN[C@H](CC(C)C)C(=O)N[C@H]1C(=O)N[C@@H](CC(N)=O)C(=O)N[C@H]2C(=O)N[C@H]3C(=O)N[C@H](C(=O)N[C@H](C(=O)O)c4cc(O)cc(O)c4-c4cc3ccc4O)[C@H](O)c3ccc(c(Cl)c3)Oc3cc2cc(c3O[C@@H]2O[C@H](CO)[C@@H](O)[C@H](O)[C@H]2O[C@H]2C[C@](C)(N)[C@H](O)[C@H](C)O2)Oc2ccc(cc2Cl)[C@H]1O` [VANCOMYCIN], the Activity was found to be 1.81 µg/mL with Cell membrane [1] and 1.78 µg/mL in the data set with Cell membrane [3]. Further, the AUC with Staphylococcus aureus [2] amounted to 5.96 µg/mL.

On to `CCCCCCCCCC(=O)N[C@@H](Cc1c[nH]c2ccccc12)C(=O)N[C@H](CC(N)=O)C(=O)N[C@@H](CC(=O)O)C(=O)N[C@@H]1C(=O)NCC(=O)N[C@@H](CCCN)C(=O)N[C@@H](CC(=O)O)C(=O)N[C@H](C)C(=O)N[C@@H](CC(=O)O)C(=O)NCC(=O)N[C@H](CO)C(=O)N[C@@H]([C@H](C)CC(=O)O)C(=O)N[C@@H](CC(=O)c2ccccc2N)C(=O)O[C@@H]1C`, for which the MIC in the data set with Staphylococcus aureus [4] was 0.5 µg/mL (≈ 0.309 µM); in the data set on Staphylococcus aureus [5] it was 4 µg/mL (≈ 2.47 µM); in the data set with Staphylococcus aureus [6] it was 2 µg/mL (≈ 1.23 µM); in the data set on Staphylococcus aureus [8], 0.5 µg/mL (≈ 0.309 µM); in the data set on Staphylococcus aureus [9] it was 0.5 µg/mL (≈ 0.309 µM); in the data set with Staphylococcus aureus [10], 0.38 µg/mL (≈ 0.234 µM). Also, the minimum inhibitory concentration (MIC) against Staphylococcus aureus [11] and with Staphylococcus aureus [13] was 2 µg/mL (≈ 1.23 µM) each time. The Activity in the data set with Cell membrane [7] was 0.79 µg/mL; in the data set on Cell membrane [12], 2.03 µg/mL. The AUC with Staphylococcus aureus [2] is 8.41 µg/mL.
